# Results as given in paper PMC5715595 (British Journal of Pharmacology, 2017).
# Where two headings read alike, the source gives them in different places.
# How the values were obtained:
# [1] = test system: conscious telemetered dogs; assay: in vivo; conditions: dog
# Method: (§1) Telemetry implantation was performed as previously described (Lacroix et al., 2003). Approximately 2 weeks later, blood pressure, heart rate and ECG intervals were recorded per blocks of 30 s at the time points of interest for 30 min before and for 24 h after administration of test compound. ECG traces were inspected visually for any rhythm or conduction abnormalities (such as arrhythmia, tachyarrhythmia, atrioventricular conduction blocks), and values of PR, QRS and QT intervals were obtained by a validated manual reading procedure (mean calculated from three non‐consecutive sinus beats). The QT interval measured was corrected for heart rate using the Fridericia formula (QTcF) and the van de Waters formula. […] Five to six dogs (two or three males and three females) were studied with at least 48 h between each test session.
# (§2) At the highest dose of 15 mg·kg^−1 p.o., this route provided an exposure (59 ± 25 ng·mL^−1), without any adverse CNS events (i.e. pre‐convulsive signs) in this species, close to the exposure recorded in humans at therapeutic doses. […] Pitolisant serum levels were assessed by LC‐mass spectrometry using a validated analytical method.
# in vivo = conditions: both sexes, Beagle, dog, in vivo; for concentration at 1 h: po, 1 h after administration, read-out: total drug exposure (serum level)
# Method: as §1, §2
# [2] = test system: human stem cell‐derived cardiomyocytes; type: cell-based
# Text: . Human cardiomyocytes (Cor.4U®, Axiogenesis AG, Cologne, Germany) were derived from human iPSC. Preparations were stimulated at 0.5 Hz with 4 ms rectangular pulses from 1 to 1.5 times depolarization threshold to −60 mV. We studied RMP, APA, action potential durations measured at 20 and 90% repolarization (APD20 and APD90) and APD90‐APD20. […]
# KV7.1/mink = target: T1, KV7.1/mink (Homo sapiens, UniProt P51787); assay: Whole-cell patch clamp on KV7.1/mink (IKs); type: cell-based
# T1 construct: expressed in transfected cells
# Method: (§3) and CiPA Initiative Studies
# (§4) =============================================================
# (§5) In vitro studies on other ion channels […]
# (§6) through NaV1.5, KV4.3, KV7.1/mink, Kir2.1, KV1.5, CaV1.2 and CaV3.2 channels.
# (§7) 35-mm dish culture in the conditions mentioned in standard cell culture conditions. Experiments were performed with a cell density enabling isolated cells for patch clamping. Cells were continuously superfused with extracellular medium (1-2 mL∙minute-1) at room temperature.
# (§8) D-glucose 10, HEPES 10 and the final pH adjusted to 7.4±0.02 with NaOH for recording NaV1.5, KV4.3, KV7.1/mink, Kir2.1, KV1.5 and CaV3.2 currents. It was (in mM): NaCl 110, KCl 4, BaCl2 20, MgCl2 1, D-glucose 20, HEPES 10 and the final pH adjusted to 7.4 ± 0.02 with NaOH for recording the CaV1.2 current. Compositions of the intracellular solution to fill the pipette are […]
# (§9) Composition of intracellular solutions used to fill pipette to record currents through NaV1.5, KV4.3, KV7.1/mink, Kir2.1, KV1.5, CaV1.2 and CaV3.2 channels
# (§10) Solution to fill the pipette (mM)
# (§11) Creatine-phospho kinase 50 U∙mL-1
# (§12) After formation of a Gigaohm seal between the patch electrodes and individual cells (pipette resistance range: 2.0 MΩ - 7.0 MΩ; seal resistance range: > 1 GΩ) the cell membrane across the pipette tip was ruptured to assure electrical access to the cell interior (whole-cell patch-configuration). In case the quality of the seal was poor, the process of seal formation was repeated with a different cell and a new pipette. As soon as a stable seal was established outward tail currents were measured upon pulses described in the Table S2. If current density was judged to be too low for measurement, another cell was recorded. […]
# (§13) voltage stimulation protocol indicated in the next table continuously run until the steady-state level of block was reached.
# (§14) Stimulation conditions used to record currents through NaV1.5, KV4.3, KV7.1/mink, Kir2.1, KV1.5, CaV1.2 and CaV3.2 channels
# (§15) Ion channel Holding potential Pulse / duration Frequency Reference compound […]
# (§16) (resting / fast / slow sweeps at one (10 mM) inactivated concentration)
# rabbit Purkinje fibres = assay: Action potential parameters in rabbit Purkinje fibres; type: cell-based
# Method: Following a lethal dose of pentobarbital, the hearts of male New Zealand rabbits were immediately excised and immersed in a modified Tyrode solution maintained at room temperature and previously saturated with O2/CO2 (95%/5%). A piece of ventricle containing free running Purkinje fibres was fixed to the silastic bottom of an organ bath perfused with the same solution maintained at 37°C for 30 min. The preparation was then superfused with the modified Tyrode solution and stimulated for 30 min at 2 Hz and then at 1 Hz (2 ms stimulus at twice threshold). […] After a stabilization period of at least 1 h, action potentials typical for Purkinje fibres were recorded. Action potential reproducibility and stability were confirmed during a further 20 min stabilization period. […] Each was applied for 20 min to enable steady state to be reached. In addition, the emergence of early after‐depolarizations (EADs), favoured by calcium loading during the late phase 2 of the prolonged action potential, is recognized as a better marker of pro‐arrhythmic potential than APD prolongation alone.
# KV1.5 = target: T2, KV1.5 (Homo sapiens, UniProt P22460); assay: Whole-cell patch clamp on KV1.5 (IKur); type: cell-based
# T2 construct: expressed in transfected cells
# T2 sequence (P22460 whole entry): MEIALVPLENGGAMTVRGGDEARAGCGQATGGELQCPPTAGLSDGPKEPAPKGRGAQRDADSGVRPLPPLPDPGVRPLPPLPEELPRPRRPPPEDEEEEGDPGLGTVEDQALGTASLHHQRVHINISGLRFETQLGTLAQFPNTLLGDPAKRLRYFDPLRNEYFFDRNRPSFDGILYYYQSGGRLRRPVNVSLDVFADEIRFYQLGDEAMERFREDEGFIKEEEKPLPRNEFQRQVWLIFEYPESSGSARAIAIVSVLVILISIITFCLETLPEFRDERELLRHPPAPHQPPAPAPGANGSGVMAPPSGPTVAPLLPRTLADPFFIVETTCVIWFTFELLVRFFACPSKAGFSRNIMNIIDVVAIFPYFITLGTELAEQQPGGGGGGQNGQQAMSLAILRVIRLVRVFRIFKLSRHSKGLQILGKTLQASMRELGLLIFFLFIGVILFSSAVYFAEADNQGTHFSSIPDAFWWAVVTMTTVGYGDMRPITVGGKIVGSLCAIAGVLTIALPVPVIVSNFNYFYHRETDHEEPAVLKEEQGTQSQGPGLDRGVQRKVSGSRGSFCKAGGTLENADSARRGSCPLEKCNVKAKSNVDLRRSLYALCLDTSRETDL
# Method: as §3, §4, §5, §6, §7, §8, §9, §10, §11, §12, §13, §14, §15, §16
compound,measurement,setting,value
"Cl.Clc1ccc(CCCOCCCN2CCCCC2)cc1 [pitolisant, 1‐{3‐[3‐(4‐chlorophenyl)propoxy]propyl}piperidine, hydrochloride]",free drug concentration,"[1]; both, Beagle, in vivo, iv",~ 0.14 μM
same,effect on mean arterial blood pressure and heart rate,"[1]; 4.5 mg·kg^−1 i.v., for up to 4 h after injection",increases in mean arterial blood pressure and heart rate
same,effect on QTcF interval,"[1]; 4.5 mg·kg^−1 i.v., return to baseline 30 min after injection",decrease in QTcF interval for 20 min
same,total drug exposure (serum level),"[1]; 15 mg·kg^−1 p.o., 1 h after administration",59.2 ± 24.6 ng/mL
same,arrhythmia or other morphological changes in the ECG,"[1]; over the test period, 6/6 dogs",No arrhythmia or other morphological changes in the ECG
same,"effect on heart rate, mean arterial blood pressure, QTc interval or any other ECG parameter","[1]; single doses 5, 10 and 15 mg·kg^−1 p.o. or 1.5 mg·kg^−1 i.v., compared to vehicle",no effect
same,concentration at 5 min,"in vivo; iv, 1.5 mg·kg^−1 i.v., 5 min, read-out: total drug concentration",294 ± 40 ng/mL
same,concentration at 30 min,"in vivo; iv, 1.5 mg·kg^−1 i.v., 30 min, read-out: total drug concentration",231 ± 36 ng/mL
same,concentration at 1 h,in vivo; 5 mg·kg^−1 p.o.,3.5 ± 1 ng/mL
same,concentration at 1 h,in vivo; 10 mg·kg^−1 p.o.,15.8 ± 5.8 ng/mL
same,concentration at 1 h,in vivo; 15 mg·kg^−1 p.o.,59 ± 25 ng/mL
same,effect on dofetilide-induced increase in APD90,[2],fully reversed
same,increase in APD90–20 vs. baseline,[2]; 3 μM,192 ms
same,maximal increase in APD90,[2]; 3 μM,97 ms
same,increase in APD90–20 vs. baseline,[2]; 10 μM,176 ms
same,effect on APD20,"[2]; 1, 3 or 10 μM",concentration‐dependent effect of decreasing APD20
same,effect on RMP and APA,"[2]; 1, 3 or 10 μM",little effect
same,Fitted IC50,"KV7.1/mink; KV7.1/mink IKs, Hill curve fit with Hill coefficient of one",No effect
same,IC50,"KV7.1/mink; KV7.1/mink, IKs",> 10 µM
same,effects on electrophysiological parameters of the action potential,rabbit Purkinje fibres; 1 μM,only minimal effects
same,change in APA,rabbit Purkinje fibres; 10 μM,−8 ± 3%
same,change in APD50 vs. the control,rabbit Purkinje fibres; 10 μM,−27 ± 4%
same,change in Vmax,rabbit Purkinje fibres; 10 μM,−17 ± 5%
same,change in resting RMP vs. the control,rabbit Purkinje fibres; 10 μM,−6 ± 1%
same,change in APD90 vs. the control,"rabbit Purkinje fibres; 10 μM, non-significant",+9 ± 5%
same,IC50,"rabbit Purkinje fibres; Oryctolagus cuniculus, purkinje, estimated from 27% decrease in APD50 at 10 μM",~5 µM
same,IC50,"KV1.5; KV1.5 IKur, Hill curve fit with Hill coefficient of one, read-out: Fitted IC50",13.8 µM
same,IC50,"KV1.5; Pitolisant IC50, KV1.5, IKur",≥ 10 µM
